Experimental data from patent US20240238426A1, “PROTEIN ACYLATION MODULATION BY HETEROBIFUNCTIONAL MOLECULES” (THE SCRIPPS RESEARCH INSTITUTE, priority 2021, published 2024).

What was measured:
H3.3-FKBP12^F36V = target: T1, H3.3-FKBP12^F36V (Homo sapiens, UniProt P62942+Q09472, F37V); test: Quantitative proteomic (TMT MS) analysis of H3.3 acetylation; format: cell-based; conditions: 625 nM AceTAG-1 vs DMSO, FIG. 5A
T1 construct: expressed in transfected cells
Experimental: Sample preparation: Cells were split in 10 cm dishes in indicated media. The probes were added once the cells grew to 60%-70% confluency and incubated for indicated time. The cells were harvested and washed with cold DPBS twice. The pelleted cells were lysed in 1 mL lysis buffer, containing 10 mM Tris pH 7.5, 300 mM NaCl, 0.1% (v/v) NP40, 5 mM sodium butyrate, 20 mM Nicotinamide, and 1X Halt Protease Inhibitor, followed by centrifuging for 5 min at 1,000 g at 4° C. The pellets were resuspended in benzonase buffer, containing 50 mM Tris pH 7.5, 300 mM NaCl, 0.5% NP40, and 2.5 mM MgCl2. Protein concentration was normalized by DC Protein Assay (Bio-Rad) and equal amount of protein was subjected to 50 U/100 ml benzonase nuclease (Millipore Sigma) treatment.
Samples with benzonase were incubated on ice for 30 min and centrifuged at 300 g for 3 min at 4° C. to obtain soluble chromatin fraction. Samples were diluted with dilution buffer, containing 50 mM Tris pH 7.5, 300 mM NaCl, 0.5% NP40, and 15 mM EDTA to quench the benzonase activity. Protein concentration was normalized again by DC Protein Assay (Bio-Rad) and equal amount of protein was used for HA-tag protein enrichment as described above. The beads were washed with lysis buffer and DPBS and incubated with 8 M urea and boiled in 4X SDS gel loading buffer at 95° C. for 15 min. […]

[1] = system: T2, FKBP12^F36V-p53 (Homo sapiens, F37V); test: Immunoblot analysis of FKBP12^F36V-p53 acetylation in H1299 cells; format: cell-based
T2 construct: expressed in transfected cells
T2 sequence (P62942 2-108 F37V limits assumed): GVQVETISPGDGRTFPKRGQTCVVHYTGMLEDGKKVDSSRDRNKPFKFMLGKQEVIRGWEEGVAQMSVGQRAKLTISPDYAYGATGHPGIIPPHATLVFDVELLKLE
T2 sequence (Q09472 2-2414 limits assumed, stated change not applied, further chain): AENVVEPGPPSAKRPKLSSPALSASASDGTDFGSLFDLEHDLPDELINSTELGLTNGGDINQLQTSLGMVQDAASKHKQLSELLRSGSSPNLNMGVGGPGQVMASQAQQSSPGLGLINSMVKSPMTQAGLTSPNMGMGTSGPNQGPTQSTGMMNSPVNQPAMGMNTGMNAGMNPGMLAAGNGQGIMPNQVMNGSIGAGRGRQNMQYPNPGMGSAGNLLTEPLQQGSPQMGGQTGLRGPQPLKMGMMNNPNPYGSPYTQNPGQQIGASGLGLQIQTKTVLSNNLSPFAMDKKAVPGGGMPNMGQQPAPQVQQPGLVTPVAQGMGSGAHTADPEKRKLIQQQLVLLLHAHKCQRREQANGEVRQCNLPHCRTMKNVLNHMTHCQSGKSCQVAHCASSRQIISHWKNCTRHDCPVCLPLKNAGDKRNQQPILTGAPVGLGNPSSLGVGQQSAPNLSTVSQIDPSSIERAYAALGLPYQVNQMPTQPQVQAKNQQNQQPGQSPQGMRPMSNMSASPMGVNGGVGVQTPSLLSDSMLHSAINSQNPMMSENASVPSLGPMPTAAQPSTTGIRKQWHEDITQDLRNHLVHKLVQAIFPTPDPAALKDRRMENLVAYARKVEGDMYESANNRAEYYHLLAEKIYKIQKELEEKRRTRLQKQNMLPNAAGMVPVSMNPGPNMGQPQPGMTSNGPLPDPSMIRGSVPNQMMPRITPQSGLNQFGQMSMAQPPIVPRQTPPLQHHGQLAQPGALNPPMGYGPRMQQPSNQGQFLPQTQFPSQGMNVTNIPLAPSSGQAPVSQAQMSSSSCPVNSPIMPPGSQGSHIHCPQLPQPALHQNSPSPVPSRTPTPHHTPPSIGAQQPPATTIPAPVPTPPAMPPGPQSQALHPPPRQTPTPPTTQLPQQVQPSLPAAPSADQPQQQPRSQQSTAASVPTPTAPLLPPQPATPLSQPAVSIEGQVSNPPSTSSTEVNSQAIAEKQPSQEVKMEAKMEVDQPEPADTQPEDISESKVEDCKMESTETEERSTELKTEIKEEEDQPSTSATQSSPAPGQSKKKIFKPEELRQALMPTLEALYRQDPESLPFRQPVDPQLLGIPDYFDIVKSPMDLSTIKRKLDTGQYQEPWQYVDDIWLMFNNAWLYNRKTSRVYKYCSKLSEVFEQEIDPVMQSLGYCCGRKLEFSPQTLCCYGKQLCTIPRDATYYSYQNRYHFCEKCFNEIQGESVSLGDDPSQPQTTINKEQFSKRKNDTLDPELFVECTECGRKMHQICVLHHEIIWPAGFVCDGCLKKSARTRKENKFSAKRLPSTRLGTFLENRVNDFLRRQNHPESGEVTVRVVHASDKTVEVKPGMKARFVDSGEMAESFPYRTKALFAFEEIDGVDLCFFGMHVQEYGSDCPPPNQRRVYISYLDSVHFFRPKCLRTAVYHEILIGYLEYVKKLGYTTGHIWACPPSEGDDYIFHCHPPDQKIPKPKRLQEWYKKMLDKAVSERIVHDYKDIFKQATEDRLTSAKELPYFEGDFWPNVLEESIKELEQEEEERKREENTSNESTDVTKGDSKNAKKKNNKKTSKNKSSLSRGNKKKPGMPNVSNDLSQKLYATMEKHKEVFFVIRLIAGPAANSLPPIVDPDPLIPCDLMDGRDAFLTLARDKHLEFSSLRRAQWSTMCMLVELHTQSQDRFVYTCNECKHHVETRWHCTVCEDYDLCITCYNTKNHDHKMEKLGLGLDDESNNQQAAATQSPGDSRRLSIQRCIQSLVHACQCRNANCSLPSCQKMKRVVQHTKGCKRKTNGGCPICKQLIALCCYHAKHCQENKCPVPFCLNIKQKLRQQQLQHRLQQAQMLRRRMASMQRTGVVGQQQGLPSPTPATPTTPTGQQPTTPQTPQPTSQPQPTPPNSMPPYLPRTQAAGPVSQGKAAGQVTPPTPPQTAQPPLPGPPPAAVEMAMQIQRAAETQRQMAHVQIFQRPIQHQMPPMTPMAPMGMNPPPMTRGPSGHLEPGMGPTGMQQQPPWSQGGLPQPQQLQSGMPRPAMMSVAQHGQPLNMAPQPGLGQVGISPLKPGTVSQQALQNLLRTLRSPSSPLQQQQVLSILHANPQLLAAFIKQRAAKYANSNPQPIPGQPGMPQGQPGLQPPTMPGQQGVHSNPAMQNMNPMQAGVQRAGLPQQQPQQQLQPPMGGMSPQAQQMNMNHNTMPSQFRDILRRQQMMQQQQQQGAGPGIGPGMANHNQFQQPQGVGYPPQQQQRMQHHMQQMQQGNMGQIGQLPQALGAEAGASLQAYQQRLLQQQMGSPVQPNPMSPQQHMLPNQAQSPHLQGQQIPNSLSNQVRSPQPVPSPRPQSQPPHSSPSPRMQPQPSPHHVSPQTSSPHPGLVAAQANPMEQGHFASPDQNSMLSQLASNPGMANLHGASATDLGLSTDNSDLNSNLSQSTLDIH
Experimental: Lentivirus Production and Transduction: Lentiviral production was performed using HEK293T cells, which were co-transfected with pMD2.G (Addgene, #12259), psPAX2 (Addgene, #12260), and AceTAG lentiviral plasmids using PEI (Polysciences Inc). Viral particles were collected 72 h after transfection and filtered through a […] membrane. A range of dilutions of the lentivirus in DMEM complete and 10 μg/mL polybrene were added to HeLa, H1299, or HeLa RelA KO cell lines. Transduced cells were selected with 1 μg/mL or 2 μg/mL puromycin.
Immunoblotting: Cells were harvested in cold DPBS by scraping and washed with cold DPBS twice. Cell pellets were resuspended in DPBS supplemented with 5 mM sodium butyrate, 20 mM Nicotinamide, and 1X Halt Protease Inhibitor Cocktail and lysed by sonication (15 ms on, 40 ms off, 15% amplitude, 1s total on x 3). Protein concentration was determined using DC Protein Assay (Bio-Rad) and absorbance read using a CLARIOstar plate reader following manufacturer's instructions. Samples with equal protein content were boiled in 4X SDS gel loading buffer for 10 min. Proteins were separated by 10%, 12.5%, or 15% SDS-polyacrylamide gel electrophoresis and transferred to PVDF membranes using Trans-Blot Turbo RTA Mini […] LF PVDF Transfer Kit (Bio-Rad). Membranes were incubated for 1 h at room temperature with blocking buffer, followed by incubating overnight at 4° C. with primary antibodies. After washing in TBST, the secondary antibodies were incubated with the membranes at room temperature for 1 h. The membranes were washed with TBST for three times and visualized on a Bio-Rad ChemiDoc MP Imaging System with Clarity Max Western ECL substrate (Bio-Rad) or SuperSignal West Femto Chemiluminescent substrate proprietary luminol and peroxide solution kit (Thermo Scientific Pierce).

T1 sequence (P62942 2-108 F37V limits assumed): as the sequence (P62942 2-108 F37V limits assumed) above
T1 sequence (Q09472 2-2414 limits assumed, stated change not applied): as the sequence (Q09472 2-2414 limits assumed, stated change not applied, further chain) above

## CC[C@H](C(=O)N1CCCC[C@H]1C(=O)O[C@H](CCc1ccc(OC)c(OC)c1)c1cccc(OCC(=O)NCCOCCOCCC(=O)NCCOc2ccc(CCc3nc4cc(-c5c(C)noc5C)ccc4n3CCN3CCOCC3)cc2)c1)c1cc(OC)c(OC)c(OC)c1 [AceTAG-1, (R)-3-(3,4-dimethoxyphenyl)-1-(3-((15-(4-(2-(5-(3,5-dimethylisoxazol-4-yl)-1-(2-morpholinoethyl)-1H-benzo[d]imidazol-2-yl)ethyl)phenoxy)-2,12-dioxo-6,9-dioxa-3,13-diazapentadecyl)oxy)phenyl)propyl (S)-1-((S)-2-(3,4,5-trimethoxyphenyl)butanoyl)piperidine-2-carboxylate]
H3.3-FKBP12^F36V
  acetylation at K18, K23, and K27 by quantitative MS: substantial increases
  acetylation at other identified lysines on H3.3 by quantitative MS: no acetylation
[1]; FIG. 6C
  p53 acetylation at higher AceTAG-1 concentrations: apparent acetylation autoinhibition
[1]; FIG. 9E
  treatment time after which a significant level of p53 acetylation is detectable: ~10 min
[1]; indicated doses, 2 hr, FIG. 6C
  p53 acetylation at K305, K373, and K382: strong AceTAG-1-dependent acetylation
